In patent US9464082B2, “Aryl and arylalkyl substituted pyrazolyl and pyrimidinyl tricyclic enones as antioxidant inflammation modulators” (AbbVie Inc., priority 2014, dated 2016):

What follows are molecules tested on IFNγ-Induced NO Production (assay: Nitric Oxide Suppression Assay (Suppression of IFNγ-Induced NO Production)). Settings: RAW264.7; RAW 264.7 mouse macrophage cells; 2 hour pre-treatment with compound (3 μM to 0.3 nM, 10 point curve); 20 ng/mL interferon gamma, ~18 hour; Griess detection; n=2-3 in duplicates.
Type: cell-based
In short: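 Mouse RAW 264.7 macrophages pre-treated 2 h at 37 °C with compound (3 μM to 0.3 nM, 10 points; DMSO ≤1%), then stimulated with 20 ng/mL interferon gamma for ~18 h. Supernatant nitrite measured by Griess reaction, absorbance 520–550 nm. IC50 from curve fit of signal normalised to IFNγ alone, mean n=2-3 in duplicate.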

In order of falling IC50:
1. C[C@@H]1C(=O)C(C#N)=C[C@]2(c3cccc(C(=O)O)c3)c3n[nH]cc3CC[C@@H]12 [Example 71, 3-[(5aS,6S,9aR)-8-cyano-6-methyl-7-oxo-2,4,5,5a,6,7-hexahydro-9aH-benzo[g]indazol-9a-yl]benzoic acid]  1470 nM
2. C[C@@H]1C(=O)C(C#N)=C[C@]2(c3ccc(C(=O)N4CCCC4)cc3)c3ncncc3CC[C@@H]12 [Example 73, (6aS,7S,10aR)-7-methyl-8-oxo-10a-[4-(pyrrolidin-1-ylcarbonyl)phenyl]-5,6,6a,7,8,10a-hexahydrobenzo[h]quinazoline-9-carbonitrile]  152 nM
3. COc1ccc([C@]23C=C(C#N)C(=O)[C@@H](C)[C@@H]2CCc2c(-c4ccc(-c5[nH]ncc5Br)cc4)nc(C)nc23)cc1 [Example 79, (6aS,7S,10aR)-4-[4-(4-bromo-1H-pyrazol-5-yl)phenyl]-10a-(4-methoxyphenyl)-2,7-dimethyl-8-oxo-5,6,6a,7,8,10a-hexahydrobenzo[h]quinazoline-9-carbonitrile]  45.7 nM
4. C[C@@H]1C(=O)C(C#N)=C[C@]2(c3ccc(O)cc3)c3n[nH]cc3CCC12 (stereo partly drawn) [Example 72, (6S,9aR)-9a-(4-hydroxyphenyl)-6-methyl-7-oxo-4,5,5a,6,7,9a-hexahydro-2H-benzo[g]indazole-8-carbonitrile]  37.9 nM
5. Cc1nc(-c2cncnc2)c2c(n1)[C@@]1(c3cccc(F)c3)C=C(C#N)C(=O)[C@@H](C)[C@@H]1CC2 [Example 69, (6aS,7S,10aR)-10a-(3-fluorophenyl)-2,7-dimethyl-8-oxo-4-(pyrimidin-5-yl)-5,6,6a,7,8,10a-hexahydrobenzo[h]quinazoline-9-carbonitrile]  35.8 nM
6. Cc1nc(-c2ccc(-c3[nH]ncc3Br)cc2)c2c(n1)[C@@]1(c3ccc(F)cc3)C=C(C#N)C(=O)[C@@H](C)[C@@H]1CC2 [Example 81, (6aS,7S,10aR)-4-[4-(4-bromo-1H-pyrazol-5-yl)phenyl]-10a-(4-fluorophenyl)-2,7-dimethyl-8-oxo-5,6,6a,7,8,10a-hexahydrobenzo[h]quinazoline-9-carbonitrile]  35 nM
7. C[C@@H]1C(=O)C(C#N)=C[C@]2(c3ccccc3)c3nc(C(C)(C)C)ncc3CC[C@@H]12 [Example 85, (6aS,7S,10aR)-2-tert-butyl-7-methyl-8-oxo-10a-phenyl-5,6,6a,7,8,10a-hexahydrobenzo[h]quinazoline-9-carbonitrile]  33.8 nM
8. Cc1nc(-c2cncnc2)c2c(n1)[C@@]1(c3ccc(F)cc3)C=C(C#N)C(=O)[C@@H](C)[C@@H]1CC2 [Example 68, (6aS,7S,10aR)-10a-(4-fluorophenyl)-2,7-dimethyl-8-oxo-4-(pyrimidin-5-yl)-5,6,6a,7,8,10a-hexahydrobenzo[h]quinazoline-9-carbonitrile]  33.6 nM
9. C[C@@H]1C(=O)C(C#N)=C[C@]2(c3ccc(F)cc3)c3nn(C(=O)CN)cc3CC[C@@H]12 [Example 82, (5aS,6S,9aR)-9a-(4-fluorophenyl)-2-glycyl-6-methyl-7-oxo-4,5,5a,6,7,9a-hexahydro-2H-benzo[g]indazole-8-carbonitrile]  31.3 nM
10. COc1ccc([C@]23C=C(C#N)C(=O)[C@@H](C)[C@@H]2CCc2c(-c4cncnc4)nc(C)nc23)cc1 [Example 67, (6aS,7S,10aR)-10a-(4-methoxyphenyl)-2,7-dimethyl-8-oxo-4-(pyrimidin-5-yl)-5,6,6a,7,8,10a-hexahydrobenzo[h]quinazoline-9-carbonitrile]  21.8 nM
11. C[C@@H]1C(=O)C(C#N)=C[C@]2(c3cccc(F)c3)c3n[nH]c(-c4cccc(CCCO)c4)c3CCC12 (stereo partly drawn) [Example 78, (6S,9aR)-9a-(3-fluorophenyl)-3-[3-(3-hydroxypropyl)phenyl]-6-methyl-7-oxo-4,5,5a,6,7,9a-hexahydro-2H-benzo[g]indazole-8-carbonitrile]  21.8 nM
12. Cc1nc(-c2ccc(-c3ccn[nH]3)cc2)c2c(n1)[C@@]1(c3ccc(F)cc3)C=C(C#N)C(=O)[C@@H](C)[C@@H]1CC2 [Example 83, (6aS,7S,10aR)-10a-(4-fluorophenyl)-2,7-dimethyl-8-oxo-4-[4-(1H-pyrazol-5-yl)phenyl]-5,6,6a,7,8,10a-hexahydrobenzo[h]quinazoline-9-carbonitrile]  16.4 nM
13. C[C@@H]1C(=O)C(C#N)=C[C@]2(c3ccccc3)c3nc(-c4ccc(C(=O)O)cc4)ncc3CC[C@@H]12 [Example 77, 4-[(6aS,7S,10aR)-9-cyano-7-methyl-8-oxo-10a-phenyl-5,6,6a,7,8,10a-hexahydrobenzo[h]quinazolin-2-yl]benzoic acid]  15.4 nM
14. COC(=O)c1ccc(-c2ncc3c(n2)[C@@]2(c4ccccc4)C=C(C#N)C(=O)[C@@H](C)[C@@H]2CC3)cc1 [Example 75, methyl 4-[(6aS,7S,10aR)-9-cyano-7-methyl-8-oxo-10a-phenyl-5,6,6a,7,8,10a-hexahydrobenzo[h]quinazolin-2-yl]benzoate]  12.7 nM
15. C[C@@H]1C(=O)C(C#N)=C[C@]2(c3ccccc3)c3nc(-c4c(F)cccc4F)ncc3CC[C@@H]12 [Example 74, (6aS,7S,10aR)-2-(2,6-difluorophenyl)-7-methyl-8-oxo-10a-phenyl-5,6,6a,7,8,10a-hexahydrobenzo[h]quinazoline-9-carbonitrile]  9.26 nM
16. COc1ccc([C@]23C=C(C#N)C(=O)[C@@H](C)[C@@H]2CCc2c(-c4ccc(-c5ccn[nH]5)cc4)nc(C)nc23)cc1 [Example 80, (6aS,7S,10aR)-10a-(4-methoxyphenyl)-2,7-dimethyl-8-oxo-4-[4-(1H-pyrazol-5-yl)phenyl]-5,6,6a,7,8,10a-hexahydrobenzo[h]quinazoline-9-carbonitrile]  7.43 nM
17. C[C@@H]1C(=O)C(C#N)=C[C@]2(c3ccccc3)c3nc(-c4cnccn4)ncc3CC[C@@H]12 [Example 84, (6aS,7S,10aR)-7-methyl-8-oxo-10a-phenyl-2-(pyrazin-2-yl)-5,6,6a,7,8,10a-hexahydrobenzo[h]quinazoline-9-carbonitrile]  6.72 nM
18. COc1ccc([C@]23C=C(C#N)C(=O)[C@@H](C)[C@@H]2CCc2cncnc23)cc1 [Example 70, (6aS,7S,10aR)-10a-(4-methoxyphenyl)-7-methyl-8-oxo-5,6,6a,7,8,10a-hexahydrobenzo[h]quinazoline-9-carbonitrile]  5.27 nM
19. C[C@@H]1C(=O)C(C#N)=C[C@]2(c3ccccc3)c3n[nH]c(-c4cncnc4)c3CC[C@@H]12 [Example 87, (5aS,6S,9aR)-6-methyl-7-oxo-9a-phenyl-3-(pyrimidin-5-yl)-4,5,5a,6,7,9a-hexahydro-2H-benzo[g]indazole-8-carbonitrile]  4.18 nM
20. C[C@@H]1C(=O)C(C#N)=C[C@]2(c3ccccc3)c3n[nH]c(-c4cccnc4)c3CC[C@@H]12 [Example 86, (5aS,6S,9aR)-6-methyl-7-oxo-9a-phenyl-3-(pyridin-3-yl)-4,5,5a,6,7,9a-hexahydro-2H-benzo[g]indazole-8-carbonitrile]  3.95 nM
21. CC(=O)n1cc(-c2nc(C)nc3c2CC[C@H]2[C@H](C)C(=O)C(C#N)=C[C@]32c2ccccc2)cn1 [Example 76, (6aS,7S,10aR)-4-(1-acetyl-1H-pyrazol-4-yl)-2,7-dimethyl-8-oxo-10a-phenyl-5,6,6a,7,8,10a-hexahydrobenzo[h]quinazoline-9-carbonitrile]  1.91 nM
